Key:
[1] = system: A549-ACE2 infected with SARS-CoV-2; assay: cell count relative to DMSO; higher = less toxic; conditions: 24 h
[2] = system: A549-ACE2 infected with SARS-CoV-2; assay: morphology score (similarity to uninfected cells); higher = more like uninfected cells; conditions: 24 h
Caco-2 [3] = assay: cell viability relative to DMSO; higher = less toxic; conditions: 72 h
Vero E6 [4] = assay: as above; conditions: 72 h
HepG2 [5] = assay: as above; conditions: 72 h
Calu-3 [6] = assay: as above; conditions: 72 h
U2OS [7] = assay: as above; conditions: 72 h
Caco-2 [8] = assay: drug sensitivity score (DSS) for viability; higher = more toxic; extreme values may be limits of the assay; conditions: 72 h
Vero E6 [9] = assay: as above; conditions: 72 h
HepG2 [10] = assay: as above; conditions: 72 h
Calu-3 [11] = assay: as above; conditions: 72 h
U2OS [12] = assay: as above; conditions: 72 h
Vero E6 [13] = assay: relative viability EC50 (midpoint between 100% and the lowest measured viability); higher = less toxic; conditions: 72 h
Calu-3 [14] = assay: as above; conditions: 72 h
U2OS [15] = assay: as above; conditions: 72 h
A549-ACE2 [16] = assay: drug-induced phospholipidosis relative to tamoxifen; higher = more phospholipidosis
[17] = system: A549-ACE2 infected with SARS-CoV-2; assay: SARS-CoV-2 infection rate relative to DMSO; higher = more infection; conditions: 24 h
A549-ACE2 [18] = assay: phospholipidosis EC50; higher = less potent phospholipidosis inducer
Caco-2 [19] = assay: relative viability EC50 (midpoint between 100% and the lowest measured viability); higher = less toxic; conditions: 72 h
HepG2 [20] = assay: as above; conditions: 72 h

CC/C(=C(\c1ccc(O)cc1)c1ccc(OCCN(C)C)cc1)c1ccccc1 [afimoxifene]
Conditions	SARS-CoV-2 infection rate [%]	cell count [%]	cell viability [%]	morphology score	phospholipidosis EC50 [nM]
A549-ACE2 [18], 24 h	–	–	–	–	1780
A549-ACE2 [18], 48 h	–	–	–	–	2820
A549-ACE2 [18], 72 h	–	–	–	–	3950
Caco-2 [3], 1 nM	–	–	93	–	–
Caco-2 [3], 10 nM	–	–	91.2	–	–
Caco-2 [3], 100 nM	–	–	95.5	–	–
Caco-2 [3], 1000 nM	–	–	94	–	–
Caco-2 [3], 10000 nM	–	–	66.6	–	–
Calu-3 [6], 1 nM	–	–	91.7	–	–
Calu-3 [6], 10 nM	–	–	103	–	–
Calu-3 [6], 100 nM	–	–	102	–	–
Calu-3 [6], 1000 nM	–	–	105	–	–
Calu-3 [6], 10000 nM	–	–	25.2	–	–
HepG2 [5], 1 nM	–	–	94.6	–	–
HepG2 [5], 10 nM	–	–	111	–	–
HepG2 [5], 100 nM	–	–	90.7	–	–
HepG2 [5], 1000 nM	–	–	112	–	–
HepG2 [5], 10000 nM	–	–	54.3	–	–
U2OS [7], 1 nM	–	–	96.8	–	–
U2OS [7], 10 nM	–	–	94.8	–	–
U2OS [7], 100 nM	–	–	102	–	–
U2OS [7], 1000 nM	–	–	97.2	–	–
U2OS [7], 10000 nM	–	–	77.6	–	–
Vero E6 [4], 1 nM	–	–	93.7	–	–
Vero E6 [4], 10 nM	–	–	98.9	–	–
Vero E6 [4], 100 nM	–	–	99.8	–	–
Vero E6 [4], 1000 nM	–	–	104	–	–
Vero E6 [4], 10000 nM	–	–	81.2	–	–
[1], 0.3 µM	–	99	–	–	–
[1], 3 µM	–	121	–	–	–
[1], 10 µM	–	117	–	–	–
[1], 30 µM	–	81	–	–	–
[2], 0.3 µM	–	–	–	-0.03	–
[2], 3 µM	–	–	–	0.75	–
[2], 10 µM	–	–	–	0.83	–
[2], 30 µM	–	–	–	-0.14	–
[17], 0.3 µM	112	–	–	–	–
[17], 3 µM	47	–	–	–	–
[17], 10 µM	13	–	–	–	–
[17], 30 µM	68	–	–	–	–

Conditions	drug sensitivity score	relative viability EC50
Caco-2 [8]	2.5	–
Calu-3 [11]	3.7	–
Calu-3 [14]	–	3.52 µM
HepG2 [10]	1.8	–
U2OS [12]	1.2	–
U2OS [15]	–	> 10000 nM
Vero E6 [9]	0.3	–
Vero E6 [13]	–	> 10 µM

drug-induced phospholipidosis [%], A549-ACE2 [16]
Conditions	0.3 µM	0.833333 µM	3.33333 µM	6.66667 µM	10 µM	30 µM
24 h	3.39	11.5	51	69.1	81.9	36.9
48 h	3.38	6.29	53.4	74.8	82.8	–
72 h	5.01	4.34	43.1	75.7	88.4	–

CC(=O)OC[C@H]1O[C@@H]([S-])[C@H](OC(C)=O)[C@@H](OC(C)=O)[C@@H]1OC(C)=O.CCP(CC)CC.[Au+] [auranofin]
Conditions	SARS-CoV-2 infection rate, [17] [%]	cell count, [1] [%]	cell viability, Caco-2 [3] [%]	cell viability, Calu-3 [6] [%]	cell viability, HepG2 [5] [%]	cell viability, U2OS [7] [%]	cell viability, Vero E6 [4] [%]	morphology score, [2]
1 nM	–	–	99.9	100	90.6	101	92.1	–
10 nM	–	–	94.2	92.8	99.4	98.2	94.2	–
0.1 µM	96	98	–	–	–	–	–	0.03
100 nM	–	–	101	106	102	98.5	93.6	–
0.3 µM	91	103	–	–	–	–	–	0.11
1 µM	86	98	–	–	–	–	–	0.34
1000 nM	–	–	58.6	117	72.1	7.5	88.1	–
3 µM	64	90	–	–	–	–	–	0.39
10000 nM	–	–	0	1.2	-0.1	0	0	–

Conditions	drug sensitivity score	relative viability EC50
Caco-2 [8]	11	–
Caco-2 [19]	–	1150 nM
Calu-3 [11]	4.5	–
Calu-3 [14]	–	3.86 µM
HepG2 [10]	9.7	–
HepG2 [20]	–	1460 nM
U2OS [12]	16.9	–
U2OS [15]	–	382 nM
Vero E6 [9]	7.5	–
Vero E6 [13]	–	2.19 µM

drug-induced phospholipidosis [%], A549-ACE2 [16]
Conditions	0.3 µM	0.833333 µM	3.33333 µM	6.66667 µM
24 h	0.97	-3.21	5.44	2.76
48 h	3.04	-1.45	6.04	–
72 h	2.56	0.634	–	–

CCN(CC)C(=S)S [ditiocarb-sodium-trihydrate]
Conditions	SARS-CoV-2 infection rate, [17] [%]	cell count, [1] [%]	cell viability, Caco-2 [3] [%]	cell viability, Calu-3 [6] [%]	cell viability, HepG2 [5] [%]	cell viability, U2OS [7] [%]	cell viability, Vero E6 [4] [%]	morphology score, [2]
1 nM	–	–	94.1	105	97.5	101	92.8	–
10 nM	–	–	97	93.1	97.9	98.9	102	–
100 nM	–	–	89.3	108	100	101	96.3	–
0.3 µM	108	97	–	–	–	–	–	-0.22
1000 nM	–	–	89.2	89	108	101	103	–
3 µM	98	102	–	–	–	–	–	0.08
10 µM	95	107	–	–	–	–	–	0.19
10000 nM	–	–	16.7	70.2	35.6	85.5	99	–
30 µM	62	106	–	–	–	–	–	0.61

Conditions	drug sensitivity score	relative viability EC50
Caco-2 [8]	6.4	–
Caco-2 [19]	–	2110 nM
Calu-3 [11]	2.8	–
HepG2 [10]	3	–
HepG2 [20]	–	3730 nM
U2OS [12]	0.2	–
U2OS [15]	–	> 10000 nM
Vero E6 [9]	0	–
Vero E6 [13]	–	> 10 µM

drug-induced phospholipidosis [%], A549-ACE2 [16]
Conditions	0.3 µM	0.833333 µM	3.33333 µM	6.66667 µM	10 µM
24 h	0.51	1.07	-2.14	-0.7	-0.24
48 h	2.4	1.02	0.85	0.97	0.53
72 h	3.87	-0.805	0.971	1.39	0.827

Clc1cc(Cl)c(OCC#CI)cc1Cl [haloprogin]
Conditions	SARS-CoV-2 infection rate, [17] [%]	cell count, [1] [%]	cell viability, Caco-2 [3] [%]	cell viability, Calu-3 [6] [%]	cell viability, HepG2 [5] [%]	cell viability, U2OS [7] [%]	cell viability, Vero E6 [4] [%]	morphology score, [2]
1 nM	–	–	109	84	91.8	95.6	95.3	–
10 nM	–	–	90.2	88.5	104	95.2	96.9	–
100 nM	–	–	95.1	99.9	116	97.5	90.6	–
0.3 µM	97	100	–	–	–	–	–	0.18
1000 nM	–	–	130	95.9	91	95.2	101	–
3 µM	83	100	–	–	–	–	–	0.44
10 µM	71	79	–	–	–	–	–	0.28
10000 nM	–	–	97	110	59.5	47.1	93.9	–
30 µM	15	15	–	–	–	–	–	0.1

Conditions	drug sensitivity score	relative viability EC50
Caco-2 [8]	0	–
Caco-2 [19]	–	> 10000 nM
Calu-3 [11]	0	–
Calu-3 [14]	–	> 10 µM
HepG2 [10]	3.4	–
U2OS [12]	3.6	–
U2OS [15]	–	2420 nM
Vero E6 [9]	0	–
Vero E6 [13]	–	> 10 µM

drug-induced phospholipidosis [%], A549-ACE2 [16]
Conditions	0.3 µM	0.833333 µM	3.33333 µM	6.66667 µM	10 µM
24 h	4.53	2.7	5.33	17.8	23.3
48 h	-1.51	-0.64	1.31	14.4	7.74
72 h	5.04	-1.02	-0.916	2.19	-6.87
